Data on 36 compounds can be found in patent US12540118B2, “Dendrene amide compound, bactericide and use thereof” (Jiangsu Flag Chemical Industry Co., Ltd., priority 2020, dated 2026).

One assay concerns the target T1, succinate dehydrogenase (Sus scrofa, UniProt A5GZW8+D0VWV4+Q007T0).
T1 construct: isolated from porcine hearts; from tissue; host or cells: porcine heart
In words: Enzyme activity assay, succinate dehydrogenase (DCIP reduction). As to conditions: read-out: Inhibitors (10 μM, SQR). Format: biochemical, porcine. The protocol:
The inhibitory activities of control agents and target compounds on succinate dehydrogenase are determined.
The enzyme used in this test example is succinate dehydrogenase, which is isolated from porcine hearts.
The test method comprises the following steps: The total volume of the system is 1.8 ml, and the system contained 100 mM Na2HPO4—NaH2PO4 buffer (pH=7.4), 0.3 mM EDTA, 20 mM sodium succinate, 53 μM DCIP (2,6-dichloroindophenol sodium), and 2 nM succinate dehydrogenase. Thermostatic waterbath at 23° C. and magnetic stirring at 600 rpm. The decrease in the light absorption of the substrate DCIP is monitored at a wavelength of 600 nm and experimental points in a linear range are collected. Control substrate consumption not more than 5% of the experimental points. The molar extinction coefficient of DCIP is 21 mM^−1 cm^−1. And calculating the reduction yield of the DCIP in the reaction time, fitting a linear slope, and deducting the baseline slope to obtain the initial reaction speed.

The next assay concerns Erysiphe graminis. The assay can be described thus: Erysiphe graminis potting method. Format: in vivo. As to conditions: Blumeria graminis; 100 mg/L; read-out: Erysiphe graminis control rating. The protocol: The fungicidal activity of the control agents and target compounds are determined. The test and investigation method refers to SOP-SC-1116 Erysiphe graminis potting method in disinfectant rolls written by KANGZHUO and GUBAOGEN in “Standard operation specification for testing biological activity of pesticides”.

In another assay the test system is Sphaerotheca fuliginea. The assay can be described thus: Sphaerotheca fuliginea potting method. Format: in vivo. The following applies: Podosphaera fuliginea; 100 mg/L; read-out: Sphaerotheca fuliginea control rating. As to the method: The fungicidal activity of the control agents and target compounds are determined. The test and investigation method refers to SOP-SC-1101 sphaerotheca fuliginea potting method in disinfectant rolls written by KANGZHUO and GUBAOGEN in “Standard operation specification for testing biological activity of pesticides”.

A value given as a limit tells only on which side of the number the result lay.

T1 sequence (Q0QF01 43-664 partner): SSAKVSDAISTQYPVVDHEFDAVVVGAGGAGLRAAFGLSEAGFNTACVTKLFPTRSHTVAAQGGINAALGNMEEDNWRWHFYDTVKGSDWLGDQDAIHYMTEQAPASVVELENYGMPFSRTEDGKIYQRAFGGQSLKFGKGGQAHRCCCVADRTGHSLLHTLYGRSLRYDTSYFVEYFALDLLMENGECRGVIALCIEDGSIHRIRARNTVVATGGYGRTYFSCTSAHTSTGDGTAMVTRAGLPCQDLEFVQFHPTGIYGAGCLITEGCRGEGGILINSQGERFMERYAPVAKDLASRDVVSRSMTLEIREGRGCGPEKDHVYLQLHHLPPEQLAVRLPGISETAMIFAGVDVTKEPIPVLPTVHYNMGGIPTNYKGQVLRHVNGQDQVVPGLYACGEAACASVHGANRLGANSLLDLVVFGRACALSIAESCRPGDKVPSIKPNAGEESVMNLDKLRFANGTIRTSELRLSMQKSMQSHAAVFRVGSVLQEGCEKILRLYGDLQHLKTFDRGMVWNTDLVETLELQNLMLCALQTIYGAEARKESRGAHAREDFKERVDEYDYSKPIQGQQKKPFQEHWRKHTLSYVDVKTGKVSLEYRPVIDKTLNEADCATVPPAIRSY
T1 sequence (Q007T0 29-280): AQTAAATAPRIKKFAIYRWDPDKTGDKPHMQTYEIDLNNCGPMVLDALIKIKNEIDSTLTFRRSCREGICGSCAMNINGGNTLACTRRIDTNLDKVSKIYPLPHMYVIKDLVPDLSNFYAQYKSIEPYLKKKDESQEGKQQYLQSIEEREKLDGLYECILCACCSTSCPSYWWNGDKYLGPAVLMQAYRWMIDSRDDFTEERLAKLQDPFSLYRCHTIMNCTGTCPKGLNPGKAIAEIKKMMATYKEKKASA
T1 sequence (D0VWV4 30-169): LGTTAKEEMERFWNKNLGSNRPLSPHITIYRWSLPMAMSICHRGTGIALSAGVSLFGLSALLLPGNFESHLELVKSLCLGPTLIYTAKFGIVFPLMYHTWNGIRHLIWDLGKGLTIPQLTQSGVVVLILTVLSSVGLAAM
T1 sequence (A5GZW8 57-159 limits assumed): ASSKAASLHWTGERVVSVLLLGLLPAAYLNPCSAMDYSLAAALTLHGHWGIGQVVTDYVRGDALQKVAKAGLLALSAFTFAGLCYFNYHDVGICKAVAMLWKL

As for `C=C(CN(C(=O)c1c(C(F)F)nn(C)c1F)C1CC1)c1ccccc1S(C)(=O)=O` [Compound 50], the inhibition at 10 µM at succinate dehydrogenase is over 90%. The pest or weed control at 100 µg/mL in the assay on Erysiphe graminis and in the assay on Sphaerotheca fuliginea was 80 to 100% throughout.
Turning to `C=C(CN(C(=O)c1c(C(F)F)nn(C)c1F)C1CC1)c1cc(S(C)(=O)=O)ccc1Cl` [Compound 51], the inhibition at 10 µM at succinate dehydrogenase is over 90%. For the same compound, the pest or weed control at 100 µg/mL in the assay with Erysiphe graminis and with Sphaerotheca fuliginea was 80 to 100% throughout.
With `C=C(CN(C(=O)c1c(C(F)F)nn(C)c1F)C1CC1)c1ccc(S(=O)(=O)CC)cc1` [Compound 52], the inhibition at 10 µM on succinate dehydrogenase is over 90%. Besides, the pest or weed control at 100 µg/mL in the assay with Erysiphe graminis and with Sphaerotheca fuliginea was 80 to 100% in each case.
Consider `C=C(CN(C(=O)c1c(C(F)F)nn(C)c1F)C1CC1)c1cccc(S(=O)(=O)CC)c1` [Compound 53], for which the inhibition at 10 µM on succinate dehydrogenase is over 90%. Besides, the pest or weed control at 100 µg/mL is 80 to 100% in the assay with Erysiphe graminis and 70 to 80% in the assay on Sphaerotheca fuliginea.
For `C=C(c1cccc(F)c1)C(C)N(C(=O)c1c(C(F)F)nn(C)c1F)C1CC1` (stereo not drawn) [Compound 56], in that order: over 90%, 80 to 100% and 80 to 100%.
For `C=C(c1cccc(Cl)c1)C(C)N(C(=O)c1c(C(F)F)nn(C)c1F)C1CC1` (stereo not drawn) [Compound 57], in that order: over 90%, 80 to 100% and 80 to 100%.
In the same order, the values of `C=C(c1ccccc1F)C(C)N(C(=O)c1c(C(F)F)nn(C)c1F)C1CC1` (stereo not drawn) [Compound 58] are over 90%, 80 to 100% and 80 to 100%.
Consider `C=C(c1ccc(Cl)cc1)C(C)N(C(=O)c1c(C(F)F)nn(C)c1F)C1CC1` (stereo not drawn) [Compound 59], for which, at succinate dehydrogenase, the inhibition at 10 µM was over 90%. For the same compound, the pest or weed control at 100 µg/mL in the assay with Erysiphe graminis and in the assay with Sphaerotheca fuliginea was 80 to 100% each time.
For the compound `C=C(c1ccc(C)cc1)C(C)N(C(=O)c1c(C(F)F)nn(C)c1F)C1CC1` (stereo not drawn) [Compound 60], the inhibition at 10 µM on succinate dehydrogenase is over 90%. Further, the pest or weed control at 100 µg/mL in the assay on Erysiphe graminis and in the assay on Sphaerotheca fuliginea was 80 to 100% in each case.
As to `C=C(c1ccc(OC)cc1)C(C)N(C(=O)c1c(C(F)F)nn(C)c1F)C1CC1` (stereo not drawn) [Compound 61], the inhibition at 10 µM at succinate dehydrogenase is over 90%. In addition, the pest or weed control at 100 µg/mL in the assay on Erysiphe graminis and with Sphaerotheca fuliginea was 80 to 100% each time.
`C=C(c1ccc(F)c(F)c1)C(C)N(C(=O)c1c(C(F)F)nn(C)c1F)C1CC1` (stereo not drawn) [Compound 62]: on succinate dehydrogenase, the inhibition at 10 µM is over 90%. The pest or weed control at 100 µg/mL in the assay on Erysiphe graminis and with Sphaerotheca fuliginea was 80 to 100% in each case.
For `C=C(c1cc(F)cc(F)c1)C(C)N(C(=O)c1c(C(F)F)nn(C)c1F)C1CC1` (stereo not drawn) [Compound 63], the inhibition at 10 µM at succinate dehydrogenase is over 90%. Besides, the pest or weed control at 100 µg/mL in the assay on Erysiphe graminis and with Sphaerotheca fuliginea was 80 to 100% each time.
`C=C(c1ccc(F)cc1F)C(C)N(C(=O)c1c(C(F)F)nn(C)c1F)C1CC1` (stereo not drawn) [Compound 64]: the inhibition at 10 µM on succinate dehydrogenase is over 90%. The pest or weed control at 100 µg/mL in the assay on Erysiphe graminis and with Sphaerotheca fuliginea was 80 to 100% each time.
Take `C=C(c1ccc(Cl)c(Cl)c1)C(C)N(C(=O)c1c(C(F)F)nn(C)c1F)C1CC1` (stereo not drawn) [Compound 65]: on succinate dehydrogenase, the inhibition at 10 µM was over 90%. Further, the pest or weed control at 100 µg/mL in the assay on Erysiphe graminis and with Sphaerotheca fuliginea was 80 to 100% throughout.
For the compound `C=C(c1ccc(Br)cc1)C(C)N(C(=O)c1c(C(F)F)nn(C)c1F)C1CC1` (stereo not drawn) [Compound 66], at succinate dehydrogenase, the inhibition at 10 µM was over 90%. In addition, the pest or weed control at 100 µg/mL in the assay with Erysiphe graminis and in the assay with Sphaerotheca fuliginea was 80 to 100% in each case.
`C=C(c1ccc(Cl)cc1Cl)C(C)N(C(=O)c1c(C(F)F)nn(C)c1F)C1CC1` (stereo not drawn) [Compound 67]: at succinate dehydrogenase, the inhibition at 10 µM is over 90%. The pest or weed control at 100 µg/mL in the assay on Erysiphe graminis and in the assay with Sphaerotheca fuliginea was 80 to 100% in each case.
As for `C=C(c1ccc(F)cc1)C(C)N(C(=O)c1c(C(F)F)nn(C)c1F)C1CC1` (stereo not drawn) [Compound 68], the inhibition at 10 µM at succinate dehydrogenase is over 90%. The pest or weed control at 100 µg/mL in the assay on Erysiphe graminis and in the assay on Sphaerotheca fuliginea was 80 to 100% throughout.
As to `C=C(c1cccc(OC)c1)C(C)N(C(=O)c1c(C(F)F)nn(C)c1F)C1CC1` (stereo not drawn) [Compound 69], the inhibition at 10 µM on succinate dehydrogenase is over 90%. Further, the pest or weed control at 100 µg/mL in the assay with Erysiphe graminis and in the assay with Sphaerotheca fuliginea was 80 to 100% throughout.
For `C=C(c1cccc(C)c1)C(C)N(C(=O)c1c(C(F)F)nn(C)c1F)C1CC1` (stereo not drawn) [Compound 70], the inhibition at 10 µM on succinate dehydrogenase is over 90%. For the same compound, the pest or weed control at 100 µg/mL in the assay with Erysiphe graminis and in the assay with Sphaerotheca fuliginea was 80 to 100% throughout.
On to `C=C(c1ccccc1C(F)(F)F)C(C)N(C(=O)c1c(C(F)F)nn(C)c1F)C1CC1` (stereo not drawn) [Compound 71], for which the inhibition at 10 µM at succinate dehydrogenase was over 90%. Moreover, the pest or weed control at 100 µg/mL with Erysiphe graminis and in the assay with Sphaerotheca fuliginea was 80 to 100% in each case.
Turning to `C=C(c1ccccc1Cl)C(C)N(C(=O)c1c(C(F)F)nn(C)c1F)C1CC1` (stereo not drawn) [Compound 72], the inhibition at 10 µM on succinate dehydrogenase was over 90%. The pest or weed control at 100 µg/mL with Erysiphe graminis and with Sphaerotheca fuliginea was 80 to 100% throughout.
On to `C=C(c1c(Cl)cccc1Cl)C(C)N(C(=O)c1c(C(F)F)nn(C)c1F)C1CC1` (stereo not drawn) [Compound 73], for which the inhibition at 10 µM on succinate dehydrogenase was over 90%. Further, the pest or weed control at 100 µg/mL with Erysiphe graminis and in the assay with Sphaerotheca fuliginea was 80 to 100% each time.
Take `C=C(c1c(Cl)cc(Cl)cc1Cl)C(C)N(C(=O)c1c(C(F)F)nn(C)c1F)C1CC1` (stereo not drawn) [Compound 74]: the inhibition at 10 µM on succinate dehydrogenase is over 90%. The pest or weed control at 100 µg/mL with Erysiphe graminis and in the assay on Sphaerotheca fuliginea was 80 to 100% in each case.
Turning to `C=C(c1cccc(Cl)c1Cl)C(C)N(C(=O)c1c(C(F)F)nn(C)c1F)C1CC1` (stereo not drawn) [Compound 75], on succinate dehydrogenase, the inhibition at 10 µM was over 90%. Also, the pest or weed control at 100 µg/mL in the assay on Erysiphe graminis and with Sphaerotheca fuliginea was 80 to 100% in each case.
`C=C(c1cc(Cl)ccc1Cl)C(C)N(C(=O)c1c(C(F)F)nn(C)c1F)C1CC1` (stereo not drawn) [Compound 76]: the inhibition at 10 µM at succinate dehydrogenase was over 90%. The pest or weed control at 100 µg/mL in the assay with Erysiphe graminis and in the assay on Sphaerotheca fuliginea was 80 to 100% throughout.
As for `C=C(c1cc(F)ccc1F)C(C)N(C(=O)c1c(C(F)F)nn(C)c1F)C1CC1` (stereo not drawn) [Compound 77], the inhibition at 10 µM at succinate dehydrogenase was over 90%. The pest or weed control at 100 µg/mL with Erysiphe graminis and in the assay with Sphaerotheca fuliginea was 80 to 100% in each case.
Consider `C=C(c1c(F)cccc1F)C(C)N(C(=O)c1c(C(F)F)nn(C)c1F)C1CC1` (stereo not drawn) [Compound 78], for which the inhibition at 10 µM at succinate dehydrogenase is over 90%. In addition, the pest or weed control at 100 µg/mL in the assay with Erysiphe graminis and in the assay on Sphaerotheca fuliginea was 80 to 100% in each case.
Take `C=C(c1c(F)cc(F)cc1F)C(C)N(C(=O)c1c(C(F)F)nn(C)c1F)C1CC1` (stereo not drawn) [Compound 79]: the inhibition at 10 µM on succinate dehydrogenase was over 90%. Also, the pest or weed control at 100 µg/mL in the assay on Erysiphe graminis and in the assay with Sphaerotheca fuliginea was 80 to 100% each time.
`C=C(c1ccccc1Br)C(C)N(C(=O)c1c(C(F)F)nn(C)c1F)C1CC1` (stereo not drawn) [Compound 80]: the inhibition at 10 µM at succinate dehydrogenase is over 90%. Moreover, the pest or weed control at 100 µg/mL in the assay with Erysiphe graminis and in the assay with Sphaerotheca fuliginea was 80 to 100% throughout.
With `C=C(c1cccc(Br)c1)C(C)N(C(=O)c1c(C(F)F)nn(C)c1F)C1CC1` (stereo not drawn) [Compound 81], the inhibition at 10 µM at succinate dehydrogenase is over 90%. Besides, the pest or weed control at 100 µg/mL with Erysiphe graminis and with Sphaerotheca fuliginea was 80 to 100% each time.
Regarding `C=C(c1ccc(Br)cc1Br)C(C)N(C(=O)c1c(C(F)F)nn(C)c1F)C1CC1` (stereo not drawn) [Compound 82], on succinate dehydrogenase, the inhibition at 10 µM is over 90%. Besides, the pest or weed control at 100 µg/mL in the assay with Erysiphe graminis and in the assay on Sphaerotheca fuliginea was 80 to 100% each time.
Regarding `C=C(c1cc(Br)ccc1Br)C(C)N(C(=O)c1c(C(F)F)nn(C)c1F)C1CC1` (stereo not drawn) [Compound 83], the inhibition at 10 µM on succinate dehydrogenase was over 90%. The pest or weed control at 100 µg/mL with Erysiphe graminis and in the assay with Sphaerotheca fuliginea was 80 to 100% throughout.
Take `C=C(c1c(Br)cccc1Br)C(C)N(C(=O)c1c(C(F)F)nn(C)c1F)C1CC1` (stereo not drawn) [Compound 84]: the inhibition at 10 µM at succinate dehydrogenase is over 90%. The pest or weed control at 100 µg/mL in the assay on Erysiphe graminis and with Sphaerotheca fuliginea was 80 to 100% in each case.
On to `C=C(c1c(Br)cc(Br)cc1Br)C(C)N(C(=O)c1c(C(F)F)nn(C)c1F)C1CC1` (stereo not drawn) [Compound 85], for which, on succinate dehydrogenase, the inhibition at 10 µM is over 90%. Further, the pest or weed control at 100 µg/mL in the assay with Erysiphe graminis and in the assay with Sphaerotheca fuliginea was 80 to 100% each time.
As to `C=C(CN(C(=O)c1c(C(F)F)nn(C)c1F)C1CC1)c1cccc(Br)c1Br` [Compound 86], at succinate dehydrogenase, the inhibition at 10 µM is over 90%. The pest or weed control at 100 µg/mL with Erysiphe graminis and in the assay on Sphaerotheca fuliginea was 80 to 100% each time.
Turning to `C=C(c1ccccc1C)C(C)N(C(=O)c1c(C(F)F)nn(C)c1F)C1CC1` (stereo not drawn) [Compound 87], the inhibition at 10 µM on succinate dehydrogenase was over 90%. Besides, the pest or weed control at 100 µg/mL with Erysiphe graminis and with Sphaerotheca fuliginea was 80 to 100% throughout.
